# Measurements from the supplement of paper PMC11208160.
# Test: recombinant UMI read abundance after kanamycin selection (control-corrected) (log10(CPM+1)); higher = more efficient recombination; extreme values may be limits of the assay; sequences stand for … in AGTGCAGAGAAAATCGGCCAGTTTTCTCTGCCTGCAGTCCGCATGCCGTGGGACCCCTTGGGTTCTAACCTGTTGCCTAGATTTATGCAGCGGACTGCCTTTCTCCCAAAGTGATAAACCGG…AGGTTGGTTTCACT; site = the 11-nt donor
# In short: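 Each donor and donor-binding-loop pair was tracked by a 12-nt UMI on a plasmid carrying a promoterless kanamycin gene. With a second plasmid supplying a fixed target and T7-inducible IS621 bridge recombinase, the pool was plated in Escherichia coli on IPTG (0.07 mM) plus kanamycin or unselected. Sequencing of recombinant UMIs across the donor–target junction gave counts expressed as log10(CPM+1) after replicate averaging and control-derived scaling.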
row,Sequence,recombinant UMI read abundance (log10)
1,CAATCCTCATGGACCGGTTTTCCCGGTAATCCGTATTTGCC (site CAATCCTCTGG),1.54
2,CAATCCTCATGGACCGGTTTTCCCGGTAATCCGTATTTGCC (site CACTCCTCTGG),1.14
3,CAATCCTCATGGACCGGTTTTCCCGGTAATCCGTATTTGCC (site CAGTCCTCTGG),0
4,CAATCCTCATGGACCGGTTTTCCCGGTAATCCGTATTTGCC (site CATTCCTCTGG),0.913
5,CAATCGGCATGGACCGGTTTTCCCGGTAATCCGTATTTGAC (site CAATCGGCTGT),1.77
6,CAATCTCCATGGACCGGTTTTCCCGGTAATCCGTATTTGCC (site CAATCTCCTGG),0
7,CAATGATCATGGACCGGTTTTCCCGGTAATCCGTATTTGAA (site CAATGATCTTT),3.01
8,CAATGATCATGGACCGGTTTTCCCGGTAATCCGTATTTGAA (site CAATGCTCTTT),0.0913
9,CAATGATCATGGACCGGTTTTCCCGGTAATCCGTATTTGAA (site CAATGGTCTTT),0.41
10,CAATGATCATGGACCGGTTTTCCCGGTAATCCGTATTTGAA (site CAATGTTCTTT),0.682
11,CAATGATCATGGACCGGTTTTCCCGGTAATCCGTATTTGCT (site CAATGATCTAG),2.19
12,CAATGATCATGGACCGGTTTTCCCGGTAATCCGTATTTGCT (site CGATCATCTAG),0
13,CAATGCACATGGACCGGTTTTCCCGGTAATCCGTATTTGAA (site CAATGCACTTT),1.97
14,CAATGCACATGGACCGGTTTTCCCGGTAATCCGTATTTGAA (site CAATGCCCTTT),0
15,CAATGCACATGGACCGGTTTTCCCGGTAATCCGTATTTGAA (site CAATGCGCTTT),0.409
16,CAATGCACATGGACCGGTTTTCCCGGTAATCCGTATTTGAA (site CAATGCTCTTT),0.438
17,CAATGCTCATGGACCGGTTTTCCCGGTAATCCGTATTTGCA (site CAATGCTCTTA),1.1
18,CAATGCTCATGGACCGGTTTTCCCGGTAATCCGTATTTGCA (site CAATGCTCTTC),0
19,CAATGCTCATGGACCGGTTTTCCCGGTAATCCGTATTTGCA (site CAATGCTCTTG),2.35
20,CAATGCTCATGGACCGGTTTTCCCGGTAATCCGTATTTGCA (site CAATGCTCTTT),0.353
21,CAATGCTCATGGACCGGTTTTCCCGGTAATCCGTATTTGGA (site CAATGCTCTTA),2.13
22,CAATGCTCATGGACCGGTTTTCCCGGTAATCCGTATTTGGA (site CAATGCTCTTC),2.46
23,CAATGCTCATGGACCGGTTTTCCCGGTAATCCGTATTTGGA (site CAATGCTCTTG),1.83
24,CAATGCTCATGGACCGGTTTTCCCGGTAATCCGTATTTGGA (site CAATGCTCTTT),2.45
25,CAATTCACATGGACCGGTTTTCCCGGTAATCCGTATTTGCT (site CAATTCACTAG),1.32

row,Sequence,recombinant UMI read abundance (log10)
1,CAATTCACATGGACCGGTTTTCCCGGTAATCCGTATTTGCT (site CAATTCCCTAG),0
2,CAATTCACATGGACCGGTTTTCCCGGTAATCCGTATTTGCT (site CAATTCGCTAG),0.587
3,CAATTCACATGGACCGGTTTTCCCGGTAATCCGTATTTGCT (site CAATTCTCTAG),0
4,CAATTCCCATGGACCGGTTTTCCCGGTAATCCGTATTTGCC (site CAATTCCCTAG),0.635
5,CAATTCCCATGGACCGGTTTTCCCGGTAATCCGTATTTGCC (site CAATTCCCTCG),0.0185
6,CAATTCCCATGGACCGGTTTTCCCGGTAATCCGTATTTGCC (site CAATTCCCTGG),0
7,CAATTCCCATGGACCGGTTTTCCCGGTAATCCGTATTTGCC (site CAATTCCCTTG),0
8,CAATTCCCATGGACCGGTTTTCCCGGTAATCCGTATTTGGT (site CAATTCCCTAA),0.173
9,CAATTCCCATGGACCGGTTTTCCCGGTAATCCGTATTTGGT (site CAATTCCCTAC),0.529
10,CAATTCCCATGGACCGGTTTTCCCGGTAATCCGTATTTGGT (site CAATTCCCTAG),0
11,CAATTCCCATGGACCGGTTTTCCCGGTAATCCGTATTTGGT (site CAATTCCCTAT),0.681
12,CAATTGACATGGACCGGTTTTCCCGGTAATCCGTATTTGAA (site CAATTGACTTT),2.17
13,CAATTTCCATGGACCGGTTTTCCCGGTAATCCGTATTTGCT (site CAATTACCTAG),0
14,CAATTTCCATGGACCGGTTTTCCCGGTAATCCGTATTTGCT (site CAATTCCCTAG),0.761
15,CAATTTCCATGGACCGGTTTTCCCGGTAATCCGTATTTGCT (site CAATTGCCTAG),0.00704
16,CAATTTCCATGGACCGGTTTTCCCGGTAATCCGTATTTGCT (site CAATTTCCTAG),1.08
17,CACAAATCATGGACCGGTTTTCCCGGTAATCCGTATTTGAC (site CACAAATCTGT),1.62
18,CACAGCCCATGGACCGGTTTTCCCGGTAATCCGTATTTGTT (site CACAGCCCTAA),0.97
19,CACAGCCCATGGACCGGTTTTCCCGGTAATCCGTATTTGTT (site CACCGCCCTAA),0.00684
20,CACAGCCCATGGACCGGTTTTCCCGGTAATCCGTATTTGTT (site CACGGCCCTAA),0.0224
21,CACAGCCCATGGACCGGTTTTCCCGGTAATCCGTATTTGTT (site CACTGCCCTAA),0.018
22,CACAGTGCATGGACCGGTTTTCCCGGTAATCCGTATTTGAT (site CACAGTGCTAT),2.52
23,CACATGGCATGGACCGGTTTTCCCGGTAATCCGTATTTGCC (site CACATGGCTGG),0
24,CACCCTACATGGACCGGTTTTCCCGGTAATCCGTATTTGAG (site CACCCTACTCT),1.27
25,CACCCTACATGGACCGGTTTTCCCGGTAATCCGTATTTGAG (site CCCCCTACTCT),0.0201

row,Sequence,recombinant UMI read abundance (log10)
1,CACCCTACATGGACCGGTTTTCCCGGTAATCCGTATTTGAG (site CGCCCTACTCT),0.0118
2,CACCCTACATGGACCGGTTTTCCCGGTAATCCGTATTTGAG (site CTCCCTACTCT),0.0244
3,CACCCTACATGGACCGGTTTTCCCGGTAATCCGTATTTGGC (site CACCCTACTGC),2.59
4,CACCTTACATGGACCGGTTTTCCCGGTAATCCGTATTTGTC (site CACCTTACTGA),0
5,CACGACCCATGGACCGGTTTTCCCGGTAATCCGTATTTGTT (site CACGACCCTAA),0.631
6,CACGACCCATGGACCGGTTTTCCCGGTAATCCGTATTTGTT (site CACGCCCCTAA),0.0282
7,CACGACCCATGGACCGGTTTTCCCGGTAATCCGTATTTGTT (site CACGGCCCTAA),0.0138
8,CACGACCCATGGACCGGTTTTCCCGGTAATCCGTATTTGTT (site CACGTCCCTAA),0.00755
9,CACGCATCATGGACCGGTTTTCCCGGTAATCCGTATTTGAT (site CACGCATCTAT),2.51
10,CACGCGACATGGACCGGTTTTCCCGGTAATCCGTATTTGGC (site CACGCGACTGC),2.94
11,CACGCTCCATGGACCGGTTTTCCCGGTAATCCGTATTTGTC (site CACGCTCCTGA),2.39
12,CACGGACCATGGACCGGTTTTCCCGGTAATCCGTATTTGTT (site CACGGACCTAA),0.00996
13,CACGGACCATGGACCGGTTTTCCCGGTAATCCGTATTTGTT (site CACGGCCCTAA),0.403
14,CACGGACCATGGACCGGTTTTCCCGGTAATCCGTATTTGTT (site CACGGGCCTAA),0.387
15,CACGGACCATGGACCGGTTTTCCCGGTAATCCGTATTTGTT (site CACGGTCCTAA),0
16,CACGGCCCATGGACCGGTTTTCCCGGTAATCCGTATTTGCT (site CACGGCCCTAA),0.0432
17,CACGGCCCATGGACCGGTTTTCCCGGTAATCCGTATTTGCT (site CACGGCCCTAC),0.0286
18,CACGGCCCATGGACCGGTTTTCCCGGTAATCCGTATTTGCT (site CACGGCCCTAG),1.12
19,CACGGCCCATGGACCGGTTTTCCCGGTAATCCGTATTTGCT (site CACGGCCCTAT),0.636
20,CACGGCCCATGGACCGGTTTTCCCGGTAATCCGTATTTGTG (site CACGGCCCTAA),0.0211
21,CACGGCCCATGGACCGGTTTTCCCGGTAATCCGTATTTGTG (site CACGGCCCTCA),0.0766
22,CACGGCCCATGGACCGGTTTTCCCGGTAATCCGTATTTGTG (site CACGGCCCTGA),0
23,CACGGCCCATGGACCGGTTTTCCCGGTAATCCGTATTTGTG (site CACGGCCCTTA),0.00311
24,CACGGTCCATGGACCGGTTTTCCCGGTAATCCGTATTTGCA (site CACGGTCCTTG),1.74
25,CACGGTCCATGGACCGGTTTTCCCGGTAATCCGTATTTGCA (site CCCGGTCCTTG),0
